According to US11306102B2, “1,3-di-substituted ketene compound and application thereof” (BEBETTER MED INC., priority 2017, dated 2022):

Legend:
[1] = biological target: T1, PPARγ (Homo sapiens, UniProt P37231); test: Hela cell/luciferase reporter gene method, PPARγ agonist activity; type: cell-based; details: Hela cells, pPPRE3-TK-Luciferase reporter, 24 hrs incubation; read-out: agonistic activity on PPARγ (EC50)
T1 construct: expressed in transfected cells; host or cells: Hela cells
T1 sequence (P37231 1-505): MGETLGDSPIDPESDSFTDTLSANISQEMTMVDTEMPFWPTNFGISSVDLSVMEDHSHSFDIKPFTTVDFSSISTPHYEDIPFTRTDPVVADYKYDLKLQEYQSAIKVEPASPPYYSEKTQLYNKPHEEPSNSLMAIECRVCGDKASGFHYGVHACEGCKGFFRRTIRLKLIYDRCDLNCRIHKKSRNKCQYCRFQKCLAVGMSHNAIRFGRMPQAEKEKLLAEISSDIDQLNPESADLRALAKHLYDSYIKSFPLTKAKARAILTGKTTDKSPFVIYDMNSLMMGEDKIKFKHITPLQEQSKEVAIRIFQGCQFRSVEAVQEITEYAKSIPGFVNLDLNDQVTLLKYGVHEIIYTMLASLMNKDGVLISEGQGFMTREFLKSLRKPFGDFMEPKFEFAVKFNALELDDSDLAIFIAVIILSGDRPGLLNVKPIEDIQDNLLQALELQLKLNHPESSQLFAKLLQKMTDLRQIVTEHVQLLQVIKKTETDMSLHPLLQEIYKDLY
Description: (§1) This example measures the biological activity of a PPAR agonist using the Hela cell/luciferase reporter gene method.
(§2) The target plasmids PCMV PPARα (Ampicillin+), PCMV PPARγ (Ampicillin+), PCMV PPARδ (Ampicillin+), and pPPRE3-TK-Luciferase (Ampicillin+) were introduced into DH5a competent cells by heat shock treatment, respectively. After being incubated for 1 hour at 37° C. with shaking (180 rpm), the cells were inoculated on LB agar solid medium containing antibiotic Ampicillin, and invertedly cultured at 37° C. for 12-16 hours. Then the monoclonal colony cultured on the medium was taken and inoculated into LB liquid medium for expanded culture. The desired plasmid was extracted from the resulting bacterial solution with a Plasmid Midi Kit (Qiagen; #12143). The plasmid obtained by centrifugation was suspended in TE buffer, and the plasmid concentration was measured and the mixture was stored at −20° C. Hela cells in the exponential phase were seeded in 6-well plates (8-10^5 cells/well), and after 6-8 hours of culture, the cells were transfected using Lipofectamine® 3000 Transfection Reagent (Invitrogen; #L3000015). A plasmid containing a PPAR binding site (peroxisome proliferator response element, PPRE) and a firefly luciferase gene (pPPRE3-TK-Luciferase) and PPAR expression vector were co-transfected into a Hela cell with a total amount of plasmid DNA of 2.5 ug (the mass ratio of each PPAR expression vector is pPPRE:PPARα=6:1, pPPRE:PPARδ=8:1, and pPPRE:PPARγ=2:1) to construct a drug screening cell model for PPAR agonists. PPAR was binded to the ligand and then binded to the peroxisome proliferator response element (PPRE), thereby initiating downstream firefly luciferase expression and its expression intensity was directly proportional to the degree of PPAR activation. The cells after 24 hours transfection were prepared into a cell suspension with a cell concentration of […] by a complete culture solution, and seeded into a 96-well plate with 100 ul per well. After overnight culture, the medium was changed to a medium containing 1% FBS. 10 mM candidate compound stock (1000×) were 4-fold diluted in DMSO for 8 points, then supplemented with medium containing 1% FBS to a final concentration of 50 uM (5×) by addition of 25 μl of 5× compound diluent to each well in different concentration gradients and incubated under 37° C., 5% CO2 incubator for 24 hrs. The 96-well plate was taken out and 30 μl of Bright-Glo™ Luciferase Assay System (Promega #E2620) was added to each well. The Luciferase luminescence intensity was measured by a SynergyH1 full-function microplate detector. The obtained data was used to calculate EC50 using GraphPad Prism 5.0 software to determine the biological activity of the compound.
(§3) The agonistic activity of the compounds synthesized in Examples 1-41 on PPAR is represented by EC50 (see Table 1). EC50 refers to the drug concentration at which the compound has a 50% increase in the agonistic activity of the measured PPAR. The compound numbers in Table 1 correspond to the compound numbers in Examples 1-41.

[2] = biological target: T2, PPARα (Homo sapiens, UniProt Q07869); test: Hela cell/luciferase reporter gene method, PPARα agonist activity; type: cell-based; details: Hela cells, pPPRE3-TK-Luciferase reporter, 24 hrs incubation; read-out: agonistic activity on PPAα (EC50)
T2 construct: expressed in transfected cells; host or cells: Hela cells
T2 sequence (Q07869 1-468): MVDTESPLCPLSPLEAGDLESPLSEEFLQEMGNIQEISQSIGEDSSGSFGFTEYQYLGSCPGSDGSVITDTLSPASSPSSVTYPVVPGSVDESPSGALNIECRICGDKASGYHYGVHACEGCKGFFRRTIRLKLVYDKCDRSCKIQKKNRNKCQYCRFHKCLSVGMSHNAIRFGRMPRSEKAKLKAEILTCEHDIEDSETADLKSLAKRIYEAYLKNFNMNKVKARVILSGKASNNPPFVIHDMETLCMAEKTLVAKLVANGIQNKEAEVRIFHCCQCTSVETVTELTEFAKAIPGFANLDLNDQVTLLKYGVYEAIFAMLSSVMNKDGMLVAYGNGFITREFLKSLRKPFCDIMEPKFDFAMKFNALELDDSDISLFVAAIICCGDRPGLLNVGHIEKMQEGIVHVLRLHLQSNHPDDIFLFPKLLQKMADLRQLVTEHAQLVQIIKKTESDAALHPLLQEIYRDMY
Description: as §1, §2, §3

`COc1ccc(C(=O)/C=C/c2cc(C)c(OC(C)(C)C(=O)O)c(C)c2)c2occc12` [Compound 1, (E)-2-(4-(3-(4-methoxybenzofuran-7-yl)-3-oxoprop-1-en-1-yl)-2,6-dimethylphenoxy)-2-methylpropanoic acid] showed an EC50 [1] of 172 nM and an EC50 [2] of 420 nM.
`CNc1ccc(C(=O)/C=C/c2cc(C)c(OC(C)(C)C(=O)O)c(C)c2)c2occc12` [Compound 2, (E)-2-(2,6-dimethyl-4-(3-(4-(methylamino)benzofuran-7-yl)-3-oxoprop-1-en-1-yl)phenoxy)-2-methylpropanoic acid] was tested, and the EC50 [2] was 948 nM.
With `Cc1cc(/C=C/C(=O)c2ccc(SCC(C)C)c3ccoc23)cc(C)c1OC(C)(C)C(=O)O` [Compound 9, (E)-2-(4-(3-(4-(isobutylthio)benzofuran-7-yl)-3-oxoprop-1-en-1-yl)-2,6-dimethylphenoxy)-2-methylpropanoic acid] the EC50 [2] was 46.8 nM.
With `CSc1ccc(C(=O)/C=C/c2cc(C)c(OC(C)(C)C(=O)O)c(C)c2)c2oc(C)nc12` [Compound 20, (E)-2-(2,6-dimethyl-4-(3-(2-methyl-4-(methylthio)benzo[d]oxazol-7-yl)-3-oxoprop-1-en-1-yl)phenoxy)-2-methylpropanoic acid] the EC50 [2] was 165 nM.
Molecule `Cc1cc(/C=C/C(=O)c2ccc3scnc3c2)cc(C)c1OC(C)(C)C(=O)O` [Compound 39, (E)-2-(4-(3-(benzo[d]thiazol-5-yl)-3-oxoprop-1-en-1-yl)-2,6-dimethylphenoxy)-2-methylpropanoic acid] has an EC50 [2] of 366 nM.
`CCOc1ccc2cc(C(=O)/C=C/c3cc(C)c(OC(C)(C)C(=O)O)c(C)c3)oc2c1` [Compound 44, (E)-2-(4-(3-(6-ethoxylbenzofuran-2-yl)-3-oxoprop-1-en-1-yl)-2,6-dimethylphenoxy)-2-methylpropanoic acid] showed an EC50 [2] of 7.67 nM.
With `Cc1cc(/C=C/C(=O)c2cc3ccccc3o2)cc(C)c1OC(C)(C)C(=O)O` [Compound 49, (E)-2-(4-(3-(benzofuran-2-yl)-3-oxoprop-1-en-1-yl)-2,6-dimethylphenoxy)-2-methylpropanoic acid] the EC50 [2] was 874 nM.
With `CSc1ccc2cc(C(=O)/C=C/c3cc(C)c(OCC(=O)O)c(C)c3)oc2c1` [Compound 57, (E)-2-(2,6-dimethyl-4-(3-(6-(methylthio)benzofuran-2-yl)-3-oxoprop-1-en-1-yl)phenoxy)acetic acid] the EC50 [2] was 1180 nM.
Work on `CSc1cccc2cc(C(=O)/C=C/c3cc(C)c(OC(C)(C)C(=O)O)c(C)c3)oc12` [Compound 58, (E)-2-(2,6-dimethyl-4-(3-(7-(methylthio)benzofuran-2-yl)-3-oxoprop-1-en-1-yl)phenoxy)-2-methylpropanoic acid] yielded an EC50 [2] of 352 nM.
`CSc1ccc2c(C(C)C)c(C(=O)/C=C/c3cc(C)c(OC(C)(C)C(=O)O)c(C)c3)oc2c1` [Compound 64, (E)-2-(4-(3-(3-isopropyl-6-(methylthio)benzofuran-2-yl)-3-oxoprop-1-en-1-yl)-2,6-dimethylphenoxy)-2-methylpropanoic acid] gave an EC50 [2] of 105 nM.
With `CSc1ccc2c(C(F)(F)F)c(C(=O)/C=C/c3cc(C)c(OC(C)(C)C(=O)O)c(C)c3)oc2c1` [Compound 73, (E)-2-(2,6-dimethyl-4-(3-(6-(methylthio)-3-(trifluoromethyl)benzofuran-2-yl)-3-oxoprop-1-en-1-yl)phenoxy)-2-methylpropanoic acid] the EC50 [2] was 3.8 nM.
In the case of `CCCSc1ccc2c(C)c(C(=O)/C=C/c3cc(C)c(OC(C)(C)C(=O)O)c(C)c3)oc2c1` [Compound 75, (E)-2-(2,6-dimethyl-4-(3-(3-methyl-6-(propylthio)benzofuran-2-yl)-3-oxoprop-1-en-1-yl)phenoxy)-2-methylpropanoic acid], the EC50 [2] is reported as 121 nM.
Molecule `Cc1cc(/C=C/C(=O)c2oc3cc(SCC(C)C)ccc3c2C)cc(C)c1OC(C)(C)C(=O)O` [Compound 76, (E)-2-(4-(3-(6-(isobutylthio)-3-methylbenzofuran-2-yl)-3-oxoprop-1-en-1-yl)-2,6-dimethylphenoxy)-2-methylpropanoic acid] has an EC50 [2] of 58.9 nM.
Work on `Cc1cc(/C=C/C(=O)c2oc3cc(SC(C)C)ccc3c2C)cc(C)c1OC(C)(C)C(=O)O` [Compound 77, (E)-2-(4-(3-(6-(isopropylthio)-3-methylbenzofuran-2-yl)-3-oxoprop-1-en-1-yl)-2,6-dimethylphenoxy)-2-methylpropanoic acid] yielded an EC50 [2] of 121 nM.
Molecule `CSc1ccc2c(C)c(C(=O)/C=C/c3cc(C)c(OC(C)(C)C(=O)O)c(C)c3)sc2c1` [Compound 82, (E)-2-(2,6-dimethyl-4-(3-(3-methyl-6-(methylthio)benzo[b]thiophen-2-yl)-3-oxoprop-1-en-1-yl)phenoxy)-2-methylpropanoic acid] has an EC50 [2] of 70.2 nM.
`CSc1ccc2cc(C(=O)/C=C/c3cc(C)c(OC(C)(C)C(=O)O)c(C)c3)[nH]c2c1` [Compound 88, (E)-2-(2,6-dimethyl-4-(3-(6-(methylthio)-1H-indol-2-yl)-3-oxoprop-1-en-1-yl)phenoxy)-2 methylpropanoic acid] was tested, and the EC50 [2] was 2440 nM.
Molecule `CCSc1ccc2c(C)c(C(=O)/C=C/c3cc(C)c(OC(C)(C)C(=O)O)c(C)c3)sc2c1` [Compound 94, (E)-2-(4-(3-(6-(ethylthio)-3-methylbenzo[b]thiophen-2-yl)-3-oxoprop-1-en-1-yl)-2,6-dimethylphenoxy)-2-methylpropanoic acid] has an EC50 [2] of 41.9 nM.
`COc1cc(/C=C/C(=O)c2cc3ccc(SC)cc3o2)cc(OC)c1OC(C)(C)C(=O)O` [Compound 99, (E)-2-(2,6-dimethoxy-4-(3-(6-(methylthio)benzofuran-2-yl)-3-oxoprop-1-en-1-yl)phenoxy)-2-methylpropanoic acid] showed an EC50 [2] of 52.1 nM.
`CSc1ccc2cc(C(=O)/C=C/c3cc(C(C)C)c(OC(C)(C)C(=O)O)c(C(C)C)c3)oc2c1` [Compound 101, (E)-2-(2,6-diisopropyl-4-(3-(6-(methylthio)benzofuran-2-yl)-3-oxoprop-1-en-1-yl)phenoxy)-2-methylpropanoic acid] gave an EC50 [2] of 477 nM.
Molecule `COc1cc(/C=C/C(=O)c2oc3cc(SC)ccc3c2C)cc(OC)c1OC(C)(C)C(=O)O` [Compound 102, (E)-2-(2,6-dimethoxy-4-(3-(3-methyl-6-(methylthio)benzofuran-2-yl)-3-oxoprop-1-en-1-yl)phenoxy)-2-methylpropanoic acid] has an EC50 [2] of 191 nM.
`CSc1ccc2c(C)c(C(=O)/C=C/c3cc(C(C)C)c(OC(C)(C)C(=O)O)c(C(C)C)c3)oc2c1` [Compound 104, (E)-2-(2,6-diisopropyl-4-(3-(3-methyl-6-(methylthio)benzofuran-2-yl)-3-oxoprop-1-en-1-yl)phenoxy)-2-methylpropanoic acid] showed an EC50 [2] of 382 nM.
